The source made the active and inactive calls. How the calls were made is not given here.
What follows are compounds tested on MTT cytotoxicity, absorbance 620 nm (assay: cytotoxicity by MTT viability readout, late-stage follow-up, cytotoxicity control for NOD2-RIPK2 interaction inhibitor project, cell-based, absorbance (AID 652169)).

SMILES | IC50
O=S(=O)(c1ccccc1)N1CCCCCC1 | > 10 µM (inactive)
Cc1ccc(S(=O)(=O)N2CCCCCC2)cc1[N+](=O)[O-] | > 10 µM (inactive)
O=S(=O)(c1ccc(F)cc1)N1CCCCCC1 | > 10 µM (inactive)
O=[N+]([O-])c1cccc(S(=O)(=O)N2CCCCCC2)c1 | > 10 µM (inactive)
Cc1ncc([N+](=O)[O-])n1Cc1ccc(Cl)c(Cl)c1 | > 10 µM (inactive)
Cc1nc([N+](=O)[O-])c(Br)n1Cc1ccccc1 | > 10 µM (inactive)
Cc1nc([N+](=O)[O-])c(Br)n1Cc1ccc(Cl)c(Cl)c1 | > 10 µM (inactive)
Cc1cc(S(=O)(=O)N2CCCCCC2)ccc1F | > 10 µM (inactive)
Cc1ccc(C(C[N+](=O)[O-])n2nc(C)cc2C)cc1 (stereo unspecified) | > 10 µM (inactive)
O=[N+]([O-])c1cc(S(=O)(=O)N2CCCCCC2)ccc1F | > 10 µM (inactive)
COc1ccc(C(C[N+](=O)[O-])n2nc(C)cc2C)cc1 (stereo unspecified) | > 10 µM (inactive)

— PubChem BioAssay AID652169 (The Scripps Research Institute Molecular Screening Center, 2013)
